For 5 compounds, Ki results are on record in BindingDB's records for doi:10.1038/sj.bjp.0702658 (Universit&Agrove, 1999).

Each structure is given as a SMILES string.

The target in this assay is T1, Melatonin receptor type 1B (Homo sapiens, UniProt P49286).
T1 sequence (P49286 whole entry): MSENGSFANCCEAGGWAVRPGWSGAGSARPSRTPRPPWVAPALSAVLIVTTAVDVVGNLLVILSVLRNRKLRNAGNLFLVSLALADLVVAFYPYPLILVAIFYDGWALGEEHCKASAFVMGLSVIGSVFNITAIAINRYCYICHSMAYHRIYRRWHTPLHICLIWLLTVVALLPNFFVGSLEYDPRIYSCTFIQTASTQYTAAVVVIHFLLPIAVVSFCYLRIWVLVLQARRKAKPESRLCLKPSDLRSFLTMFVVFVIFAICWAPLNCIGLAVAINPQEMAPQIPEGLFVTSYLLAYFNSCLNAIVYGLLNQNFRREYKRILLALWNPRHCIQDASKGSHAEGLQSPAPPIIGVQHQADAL
Broadly, the Ki is the equilibrium dissociation constant of an inhibitor or competing ligand from its target. High values mean lower affinity, low ones higher affinity. Regarding `CC(=O)NCCc1c(Cc2ccccc2)[nH]c2ccccc12` [CAS_117946-91-5], the Ki came to 11.2 nM. For `COc1ccc2[nH]c(-c3ccccc3)c(CCNC(C)=O)c2c1` [Melatonin,2-Phenyl] the value was 0.03 nM. In the case of `CC(=O)NCCc1c[nH]c2ccc(O)cc12` [N-Acetyltryptamine,5-Hydroxy] it was 339 nM; in that of `CC(=O)NCCc1c[nH]c2ccccc12` [N-Acetyltryptamine], 64.6 nM. For `O=C(NCCc1c(-c2ccccc2)[nH]c2ccccc12)C1CCC1` [N-CBCPT], the Ki turned out to be 85.1 nM.
